Laboratory results published in ChEMBL document CHEMBL2440023, “Biological activity of 3-chloro-azetidin-2-one derivatives having interesting antiproliferative activity on human breast cancer cell lines” (Bioorg Med Chem Lett, 2013).
Activity calls are given as the source filed them. The rule behind the calls is not given here.

Assays:
NIH3T3 = assay: Cytotoxicity against mouse 3T3 cells assessed as cell viability at 5 to 20 uM after 72 hrs by MTT assay; assay type: cell-based; details: nih3t3, 72 h
MCF7 [1] = assay: Cytotoxicity against ER-positive human MCF7 cells assessed as growth inhibition after 72 hrs by MTT assay; assay type: functional, cell-based; details: for IC50: MCF7, 72 h
[2] = Stability of the compound in simulated gastric/intestinal fluid assessed as compound remaining at 10 mM after 6 hrs by UV/Vis spectroscopic analysis in presence of porcine pepsin and pancreatin relative to control; assay type: physicochemical; details: pig; read-out: Stability
SK-BR-3 [3] = assay: Cytotoxicity against ER-negative human SKBR3 cells assessed as growth inhibition after 72 hrs by MTT assay; assay type: functional, cell-based; details: for IC50: SK-BR-3, 72 h
SK-BR-3 [4] = assay: Cytotoxicity against ER-negative human SKBR3 cells assessed as growth inhibition at 20 uM after 72 hrs by MTT assay; assay type: functional, cell-based
MCF7 [5] = assay: Cytotoxicity against ER-positive human MCF7 cells assessed as growth inhibition at 10 to 20 uM after 72 hrs by MTT assay; assay type: functional, cell-based
SK-BR-3 [6] = assay: Cytotoxicity against ER-negative human SKBR3 cells assessed as growth inhibition at 10 to 20 uM after 72 hrs by MTT assay; assay type: functional, cell-based
MCF7 [7] = assay: Cytotoxicity against ER-positive human MCF7 cells assessed as growth inhibition at 20 uM after 72 hrs by MTT assay; assay type: functional, cell-based
MCF7 [8] = assay: Cytotoxicity against ER-positive human MCF7 cells assessed as growth inhibition at 1 uM after 72 hrs by MTT assay; assay type: functional, cell-based

remaining at 6 h, 10000 µM [2] [%] | SMILES | Activity (NIH3T3) | growth inhibition (GI) (MCF7 [1]) | IC50 (MCF7 [1]) [µM] | growth inhibition (GI) (SK-BR-3 [3]) | IC50 (SK-BR-3 [3]) [µM] | growth inhibition (GI) (SK-BR-3 [4]) | growth inhibition (GI) (MCF7 [5]) | growth inhibition (GI) (SK-BR-3 [6]) | growth inhibition (GI) (MCF7 [7]) | growth inhibition (GI) (MCF7 [8])
70 | O=C1C(Cl)C(c2ccc(Cl)cc2)N1c1ccc(I)cc1 (stereo unspecified) | Non-toxic | Dose-dependent effect | 11.8 | Dose-dependent effect | 9.51 | – | – | – | – | –
79 | Cc1ccc(C2C(Cl)C(=O)N2c2ccc(C)cc2)cc1 (stereo unspecified) | Non-toxic | – | – | – | – | Active | inactive | – | – | –
80 | O=C1C(Cl)C(c2ccccc2)N1c1ccc(Cl)cc1 (stereo unspecified) | Non-toxic | Dose-dependent effect | – | – | – | – | – | Active | – | –
83 | O=C1C(Cl)C(c2ccc(Cl)cc2)N1c1ccccc1 (stereo unspecified) | Non-toxic | – | – | – | – | – | – | Active | Active | –
78 | O=C1C(Cl)C(c2ccccc2)N1c1ccccc1 (stereo unspecified) | Non-toxic | – | – | – | – | – | – | Active | – | inactive
87 | O=C1C(Cl)C(c2ccc(Br)cc2)N1c1ccc(Br)cc1 (stereo unspecified) | Non-toxic | Dose-dependent effect | 16.7 | Dose-dependent effect | 11.1 | – | – | – | – | –
31 | Oc1ccc(/C=C\c2cc(O)cc(O)c2)cc1 [CIS-RESVERATROL] | – | – | 28.4 | – | 41.2 | – | – | – | – | –
